# Test results as given in patent publication US20200010857A1 (priority 2016, published 2020).
# Like-named read-outs stand apart in the source and are kept apart here.
# What was measured:
# [1] = test system: Rhodococcus aetherivorans BCP1; assay: Minimal Inhibitory Concentration (MIC) of tellurite, kill curve; format: cell-based; conditions: for log reduction of BCP1 viable cells: 24 h
# Experimental: The strain Rhodococcus aetherivorans BCP1 (DSM 44980) was pre-cultured in 250 mL Erlenmeyer Baffled Flask for 2 days, containing 25 mL of Luria-Bertani medium (here indicated as LB) [composed of (g/L) NaCl, 10; Yeast Extract, 5; Tryptone, 10]. When necessary, the medium was solidified by adding 15 g/L of Agar. BCP1 cells were then inoculated (1% v/v) and grown for 5 days in 50 mL of LB medium supplied with either 100 (0.4 mM) or 500 (2 mM) μg/mL of K2TeO3. Here we refer to this first bacterial growth as unconditioned. After this growth step, BCP1 cells were re-inoculated (1% v/v) and cultured for other 5 days in 50 mL of fresh LB medium and 100 or 500 μg/mL of K2TeO3. This secondary bacterial growth is here defined as conditioned. Each culture was incubated aerobically at 30° C. with shaking (150 rpm). In order to evaluate the bacterial growth rate, every 24 h an aliquot (100 μL) of BCP1 cells was collected from each culture and serially diluted in sterile saline solution (NaCl 0.9% w/v). The cells were recovered on LB agar plates for 48 h at 30° C. The number of growing cells is reported as average of the Colony Forming Unit per milliliter (CFU mL^−1) counted for each biological trial (n=3) with standard deviation. All the reagents were purchased from Sigma-Aldrich®.
# After 24 h of incubation the number of viable cells was determined by spot plates count on LB agar recovery plates. The assay was conducted in triplicate and the data are reported as average of the CFU mL-1 counted with standard deviation. The established MIC and corresponding kill curve was used to choose the best concentration of K2TeO3 to use for nano-material production.
# Salinicoccus sp. QW6 = conditions: K2TeO3 in rich medium, aerobic; Amoozegar et al. (2008); cited from earlier work
# Lysinibacillus sp. ZYM-1 = conditions: K2TeO3 in rich medium, aerobic; Zao et al. (2016); cited from earlier work
# Bacillus sp. STG-83 = conditions: K2TeO3 in rich medium, aerobic; Soudi et al.(2009); cited from earlier work
# [2] = test system: Corynebacterium difteriaes; conditions: K2TeO3 in rich medium, aerobic; Tucker et al. (1961); cited from earlier work
# Paenibacillus TeW = conditions: K2TeO3 in rich medium, aerobic; Chien et al. (2009); cited from earlier work
# Bacillus sp. BZ = conditions: K2TeO3 in rich medium, aerobic; Zare et al. (2012); cited from earlier work
# bacterial cells = conditions: cited from earlier work
# [3] = test system: Rhodococcus aetherivorans BCP1; assay: Tolerance of BCP1 towards SeO3^2− oxyanions (MIC^Se); format: cell-based
# Experimental: (§1) Rhodococcus aetherivorans BCP1 strain (DSM 44980) was pre-cultured in 250 mL Erlenmeyer Baffled Flask for 48 h in 25 mL of Luria-Bertani medium (indicated as LB) [containing (g/L) NaCl, 10; Yeast Extract, 5; Tryptone, 10]. When necessary the medium was solidified by adding 15 g/L of Agar. BCP1 cells were then inoculated (1% v/v) and grown for 120 h in 50 mL of LB broth to which was added either 0.5 mM or 2 mM of Na2SeO3. This first bacterial growth is here defined as unconditioned. After the unconditioned growth, BCP1 cells were re-inoculated (1% v/v) and cultured for other 120 h in 50 mL of fresh LB medium supplied with a new addition of either 0.5 or 2 mM of Na2SeO3. Here we refer to this bacterial growth as conditioned. Unconditioned or conditioned cultures were incubated aerobically at 30° C. with shaking (150 rpm). Bacterial growth rate was evaluated by spot plate count method every 24 h over the incubation time. LB agar plates containing the spotted cells were recovered for 48 h at 30° C. The number of growing cells is reported as mean the Colony forming Unit (log10[CFU/mL]) with standard deviation. All the reagents were purchased from Sigma-Aldrich®.
# The BCP1 strain has been exposed to different concentrations of Na2SeO3, ranging from 0.5 to 200 mM as initial concentration to evaluate its tolerance towards these toxic oxyanions. Briefly, after 24 h of exposure to each concentration of Na2SeO3 tested, BCP1 cells were serially diluted in sterile saline solution (NaCl 0.9% w/v) and the number of viable cells were determined by spot plates count on LB agar recovery plates. The assay was conducted in triplicate and the viable cell numbers are indicated as the average of the log10[CFU/mL] with standard deviation.
# [4] = test system: Rhodococcus aetherivorans BCP1; assay: Growth of BCP1 in LB supplied with Na2SeO3 (spot plate count); format: cell-based; conditions: unconditioned cells
# Experimental: as §1
structure (smiles),measurement,setting,value
"O=[Te]([O-])[O-].[K+].[K+] [K2TeO3, potassium tellurite]",number of BCP1 viable cells,[1]; 24 h exposure to 100 μg/mL K2TeO3,5.00·10^5 CFU/mL
same,number of BCP1 viable cells,[1]; 24 h exposure to 500 μg/mL K2TeO3,1.00·10^5 CFU/mL
same,decrease of number of BCP1 viable cells,[1]; 24 h exposure to 100 or 500 μg/mL K2TeO3,less than 1 log
same,Minimal Inhibitory Concentration (MIC) of TeO3^2−,"[1]; 24 h exposure to K2TeO3 in LB, aerobic",2800 µg/mL
same,Minimal Inhibitory Concentration (MIC^Te),"[1]; 24 h exposure to K2TeO3 in rich medium (LB), aerobic",11200 µM
same,log reduction of BCP1 viable cells,[1]; K2TeO3 varied from 100 to 1000 μg/mL (0.4-4 mM),1 log
same,log reduction of BCP1 viable cells,[1]; K2TeO3 varied from 100 to 2000 μg/mL (0.4-8 mM),2 log
same,log reduction of viable cells vs number at time of inoculation,"[1]; at the MIC, 2800 μg/mL K2TeO3, 24 h",3 log
same,BCP1 strain tolerance relative to MIC^Te of Corynebacterium difteriaes,[1]; ratio of MIC^Te values,ten times higher
same,MIC^Te,Salinicoccus sp. QW6,12000 µM
same,MIC^Te,Lysinibacillus sp. ZYM-1,2000 µM
same,MIC^Te,Bacillus sp. STG-83,1250 µM
same,MIC^Te,[2],1000 µM
same,MIC^Te,Paenibacillus TeW,1000 µM
same,MIC^Te,Bacillus sp. BZ,800 µM
same,MIC^Te,bacterial cells; aerobic growth,2 µg/mL
same,MIC^Te,bacterial cells; anaerobic growth,250 µg/mL
"O=[Se](O)O [Na2SeO3, sodium selenite]",log reduction in number of viable cells,"[3]; 0.5 mM versus 200 mM Na2SeO3, 24 h",2 log
same,number of viable cells,[3]; 24 h exposure to 0.5 mM Na2SeO3,2.00·10^6 CFU/mL
same,number of viable cells,"[3]; 24 h exposure to 0.5 mM Na2SeO3, listed as SeO3^2−",2·10^6 CFU/mL
same,number of viable cells,[3]; 24 h exposure to 2 mM SeO3^2−,1.72·10^6 CFU/mL
same,number of viable cells,[3]; 24 h exposure to 200 mM Na2SeO3,6.17·10^4 CFU/mL
same,"BCP1 tolerance, times higher than MIC^Se of Streptomyces microflavus FSHJ31",[3]; ratio of MIC^Se values,80 times
same,"BCP1 tolerance, times higher than MIC^Se of Streptomyces sp. ES2-5",[3]; ratio of MIC^Se values,4 times
same,number of live cells counted,"[4]; 0.5 mM Na2SeO3, 72 h",6.33·10^6 CFU/mL
same,number of viable cells,"[4]; 0.5 mM Na2SeO3, 120 h",1.2·10^6 CFU/mL
same,number of growing cells,"[4]; 2 mM Na2SeO3, 72 h",4.24·10^6 CFU/mL
same,number of growing cells,"[4]; 2 mM Na2SeO3, 120 h",9.83·10^5 CFU/mL
